# Source: US20180036433A1, “COMPOUNDS FOR THE DIAGNOSIS OR TREATMENT OF DISORDERS ASSOCIATED WITH PROTEIN OR PEPTIDE OLIGOMERS” (Agency for Science, Technology and Research, priority 2014, published 2018)
# What was measured:
# [1] = molecular target: monomers, oligomers and fibrils of Aβ (synthetic Aβ1-40) (Homo sapiens, UniProt P05067); assay: Fluorescence response to pre-formed Aβ monomers, oligomers and fibrils; format: binding; details: dye 5 μM, Aβ 20 μM
# [2] = molecular target: Aβ1-40 on-fibril pathway oligomers (Homo sapiens, UniProt P05067); assay: Time-dependent Aβ fibril formation monitored by dye fluorescence; format: binding; details: dye 5 μM, Aβ 20 μM, 37° C.
# Sequence of Aβ1-40 on-fibril pathway oligomers (P05067 672-711): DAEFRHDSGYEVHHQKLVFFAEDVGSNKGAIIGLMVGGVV
# Sequence of monomers, oligomers and fibrils of Aβ (synthetic Aβ1-40) (P05067 672-711): as above
smiles,measurement,setting,value
"Cc1ccc2c(c1)sc(-c1ccc(N(C)C)cc1)[n+]2C.[Cl-] [ThT, Thioflavin T]","fluorescence response to Aβ monomers, oligomers and fibrils",[1],"fluorescence response in the increasing order of freshly prepared Aβ monomers, followed by oligomer and fibrils"
same,fluorescence over the time course of Aβ fibril formation,[2],reached a maximum fluorescence after about 1-day and plateaus
